Where “and” joins values, the source holds several entries; their conditions need not be identical. Identical values can stand only once.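 A five-concentration, 48-hour dose response in 96-well plates underlies each endpoint, interpolated linearly between surrounding concentrations. GI50: concentration for 50% inhibition of growth. TGI is the concentration that stops growth completely.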 Where a SMILES comes first, the peptide text is derived from it. [ ]: non-standard residue; d: D form. The star is where a group is joined. Dolaproine = CO[C@@H]([C@@H]1CCCN1)[C@@H](C)C(=O)O; Dil = CC[C@H](C)[C@H](NC)[C@@H](CC(=O)O)OC; X2 = C[C@@H](N*)[C@@H](O)c1ccccc1; NMeV = CN[C@H](C(=O)O)C(C)C Some results are limits rather than exact numbers.

In this assay the test system is MDA-MB-468 breast. The experiment in a line: inhibition of tumour cell growth, NCI panel, 48 h.
`COc1ccc(-c2cn[nH]c2-c2cc(OC)c(OC)c(OC)c2)cc1OCc1ccccc1`: the GI50 was 2.18 µM and the TGI worked out at 7.94 µM.

Take `Cc1ccc(C)c(NC2=C(Cl)C(=O)c3nc(C)ccc3C2=O)c1`: the GI50 was 1.51 µM and the TGI is 3.08 µM.

As to `Cc1ccc(S(=O)(=O)c2ccccc2)cc1`, the GI50 was 1.59 µM and the TGI was 5.78 µM.

As to `NC(N)=NN=C(c1ccccc1)c1ccccc1`, the GI50 is 2.2 µM and the TGI was 12.2 µM.

Consider `O=C(C[n+]1cccc2cc(Cl)ccc21)c1ccc2c(c1)CCCC2`, for which the GI50 is 0.423 µM and the TGI was 1.82 µM.

In the case of `O=C1/C=C/[C@@H](O)[C@@H]2C[C@@H](O)C[C@H]2/C=C/CCC[C@H](CCOCc2ccccc2)O1`, the GI50 is under 0.0161 µM and the TGI was 0.0312 µM.

Regarding `CSc1nc(-c2cc3ccccc3o2)cc(-c2ccc(Cl)cc2)c1C#N`, the GI50 is 21.8 µM and the TGI was over 100 µM.

With `CC[N+](CC)=c1cc2oc3cc(N(C)C)ccc3nc-2cc1C`, the GI50 was 1.33 µM and the TGI came to 4.39 µM.

With `Cc1nc2ccccc2nc1NNc1ccccc1`, the GI50 was 10.3 µM and the TGI came out at 58 µM.

`COc1cc(Nc2ccnc(NCCNc3ccnc4cc(Cl)ccc34)n2)cc(OC)c1`: the GI50 was 1.04 µM and the TGI worked out at 3.33 µM.

With `CNC(=O)c1ccccc1Nc1cc(Nc2ccc(N3CCOCC3)cc2OC)ncc1C(F)(F)F`, the GI50 was 27.8 µM and the TGI is 97.8 µM.

Regarding `Nc1ccc(S(=O)(=O)c2ccc(N)cc2)cc1`, the GI50 was over 100 µM and the TGI was over 100 µM.

As to `O=C1Nc2ccccc2/C1=C\c1c(-c2ccccc2)nc2ccccn12`, the GI50 was 2.1 µM and the TGI was determined as 6.67 µM.

Take `COc1ccc(/C(C)=C(\c2ccc(Cl)cc2)c2ccc(OCCN3CCCCC3)cc2)cc1`: the GI50 was 3.67 µM and the TGI came to 8.03 µM.

`CC[C@H](C)[C@H](NC(=O)c1ccccn1)C(=O)N(C)[C@H](C[C@@H](OC(C)=O)c1nc(C(=O)N[C@@H](Cc2ccccc2)C[C@H](C)C(=O)OC)cs1)C(C)C`: the GI50 was 3.38 µM and the TGI came to 15.4 µM.

With `O=C(Cc1n[nH]c(=O)c2ccccc12)OCc1c(Cl)cccc1Cl`, the GI50 is over 100 µM and the TGI was over 100 µM.

Take `COc1ccc2c(c1)C=CC1(O2)Oc2ccc(OC)cc2C=C1C` (stereo not given): the GI50 was 0.876 µM and the TGI is over 100 µM.

For `CC1CCCc2sc3nc(NNC(=O)c4cnccn4)n(-c4ccccc4)c(=O)c3c21` (stereo not given), the GI50 is 0.333 µM and 0.239 µM; the TGI was 2.3 µM and 0.946 µM.

Regarding `Clc1ccc(C(Cn2ccnc2)OCc2ccsc2Cl)c(Cl)c1` (stereo not given), the GI50 was 2.3 µM and the TGI amounted to 7.3 µM.

Turning to `CCCCC(CCCCCC(CCCC)C1NC(C)Cc2cc(OC)c(OC)cc21)C1NC(C)Cc2cc(OC)c(OC)cc21` (stereo not given), the GI50 was 0.436 µM and the TGI turned out to be 1.88 µM.

For `c1cc[n+](C2c3ccccc3C([n+]3ccccc3)c3ccccc32)cc1` (stereo not given), the GI50 is 1.11 µM and the TGI was 4.4 µM.

As for `COc1ccc2cc(C#Cc3ccc(-n4c(/C=C/c5cc(OC)c(OC)c(OC)c5)nc5ccccc5c4=O)c(C)c3)ccc2c1`, the GI50 was 3.8 µM and the TGI was over 100 µM.

Consider `O=C(Nc1ccc2[nH]c3ccccc3c2c1)c1ccccc1Cl`, for which the GI50 was 2.86 µM and the TGI stood at 24.9 µM.

`O=C1/C(=C/c2ccccc2)CN(C(=O)CCN2CCC(=NO)CC2)C/C1=C\c1ccccc1`: the GI50 was 1.74 µM and the TGI was 4.25 µM.

For `COc1cccc(C2=C(c3cn(C)c4ccc(Cl)cc34)C(=O)NC2=O)c1`, the GI50 is 4.17 µM and the TGI amounted to 17.1 µM.

Consider `CCNC(=O)N1CCc2cc(OC)c(OCCc3ccc(OC)cc3)cc2C1c1ccc(OC)cc1C` (stereo not given), for which the GI50 is 1.93 µM and the TGI is over 30.2 µM.

Take `CC[C@H](C)[C@@H]([C@@H](CC(=O)N1CCC[C@H]1[C@H](OC)[C@@H](C)C(=O)N[C@H](C)[C@@H](O)c1ccccc1)OC)N(C)C(=O)[C@@H](NC(=O)[C@@H](NC)C(C)C)C(C)C` (H-[NMeV]V[Dil][Dolaproine]-X2): the GI50 was under 0.005 µM and the TGI is over 57.1 µM.

For the molecule `COc1cc(/C=C/C(=O)c2ccc(Nc3nc(NCCO)nc(N4CCOCC4)n3)cc2)cc(OC)c1OC`, the GI50 was 1.34 µM and the TGI was 3.76 µM.

Regarding `Clc1ccc2c(N3CCN(c4ccnc(NC5CCCCC5)n4)CC3)ccnc2c1`, the GI50 is 1.64 µM and the TGI was 3.6 µM.

Regarding `CN[C@@H](C)C(=O)N[C@H]1CCS[C@H]2CC(C)(C)[C@@H](C(=O)N[C@H]3c4ccccc4C[C@H]3OCC#CC#CCO[C@@H]3Cc4ccccc4[C@@H]3NC(=O)[C@H]3N4C(=O)[C@@H](NC(=O)[C@H](C)NC)CCS[C@H]4CC3(C)C)N2C1=O`, the GI50 was under 0.005 µM and the TGI came to 0.0164 µM.

In the case of `COc1cccc2[nH]c3c4c(c5c(c3c12)C(=O)N(CN1CCN(C)CC1)C5=O)CCC4`, the GI50 is 5.15 µM and the TGI was 26.6 µM.

Turning to `Nc1n[nH]c2cccc(C#Cc3cccc(NC(=O)c4ccc(N5CCOCC5)c(C(F)(F)F)c4)c3)c12`, the GI50 was 2.28 µM and the TGI is 6.82 µM.

Take `COC1=C(OC)C(=O)C(CCCCCCCCCC[P+](c2ccccc2)(c2ccccc2)c2ccccc2)=C(C)C1=O`: the GI50 is 0.0668 µM and the TGI was determined as 0.694 µM.

Regarding `CCOc1cc(F)c([N+](=O)[O-])cc1[N+](=O)[O-]`, the GI50 was 1.86 µM and the TGI is 3.51 µM.

Consider `N#CC1(Nc2ccc(Br)cc2)CCCC1`, for which the GI50 is over 100 µM and the TGI was over 100 µM.

With `COc1cc(C2C3=C(COC3=O)N(CCO)c3cc4c(cc32)OCO4)cc(OC)c1OC` (stereo not given), the GI50 is 0.242 µM and 0.344 µM; the TGI was 0.626 µM and 0.979 µM.

With `O=C(Nc1ncc(Cc2ccccc2)s1)c1sc2ccccc2c1Cl`, the GI50 was 1.4 µM and the TGI turned out to be 18.7 µM.

For `C=CC(=O)N1CCN(CCCn2c(=O)c(-c3c(Cl)c(OC)cc(OC)c3Cl)cc3cnc(NC)nc32)CC1`, the GI50 is 1.24 µM and the TGI turned out to be 5.9 µM.

With `C[C@]12CC[C@@H]3c4ccc(O)cc4CC[C@H]3[C@@H]1CC[C@@H]2NS(=O)(=O)c1ccc(Cl)cc1`, the GI50 was 4.94 µM and the TGI amounted to 17.3 µM.

With `C[C@@H]1C[C@H]2C(=O)OCC(NC(=O)[C@H](Cc3cc(F)cc(F)c3)NC(=O)Nc3ccc(Cl)cc3F)C(=O)N3CCC[C@H]3C(=O)N3CCCC[C@H]3C(=O)N[C@@H](C)C(=O)N2C1` (stereo not given in full), the GI50 is 1.43 µM and 0.294 µM; the TGI was 18.8 µM and 2.88 µM.

Source of the values: PubChem BioAssay (NCI).
